Data: article PMC9027957, “Interspecies Comparisons of the Effects of Potential Antiviral 3-Amidinophenylalanine Derivatives on Cytochrome P450 1A2 Isoenzyme” (Veterinary Sciences, 2022)

Tests used:
Assay type in all cases: in vitro ADME
[1] = 60 min microsomal stability assay (UPLC-MS/MS), cynomolgus monkey liver microsomes; settings: 50 µM
Method: (§1) Rat, beagle (Gibco, Biocenter, Szeged, Hungary), and cynomolgus monkey (Primacyt, Schwerin, Germany) liver microsomes were exposed to inhibitors MI-432, MI-463, MI-482, or MI-1900 at 50 µM for 60 min. The final microsomal protein concentration in the suspension was 0.6 mg/mL in each case. The reaction buffer (100 mM phosphate buffer pH 7.4) also contained 1 mM nicotinamide adenine dinucleotide phosphate (NADPH), 5 mM MgCl2, 10 mM glucose-6-phosphate (G6P), and 2 IU/mL glucose-6-phosphate dehydrogenase (G6PD). The reaction was terminated by the addition of ice-cold acetonitrile (ACN) with the ratio of sample ACN volume = 1:2. The precipitated protein was removed by centrifugation at 10,000× g for 10 min, and the supernatants were used for subsequent analyses.
(§2) The determination of all analytes was carried out using an UPLC/MS/MS system, which consisted of an HPLC apparatus (SCIEX ExionLC^TM UPLC, Framigham, MA, USA) and a SCIEX Qtrap 4500 triple-quadrupole mass spectrometer (Framigham, MA, USA) equipped with a SCIEX Turbo V electrospray ionization source. The HPLC columns used were LiChrospher RP Select B (125 × 4.0 mm, 5.0 μm, C8 stationary phase). Next, 0.1% trifluoroacetic acid in ultra-purified water (A) and acetonitrile (B) were used as mobile phases for chromatographic separations applying a gradient elution. The HPLC gradient program was the following: between 0 and 10 min, a ratio of 70% A and 30% B; from 10 to 20 min, linearly increasing to a ratio of 50% A and 50% B; from 20 to 21 min, maintained at a ratio of 50% A and 50% B; from 21 to 22 min, linearly decreasing back to a ratio of 70% A and 30% B; and between 22 min and 30 min, maintained at a ratio of 70% A and 30% B. The run time was 30 min, the column temperature was adjusted to 35 °C, and the flow rate was 1 mL/min.

[2] = 60 min microsomal stability assay (UPLC-MS/MS), rat liver microsomes; settings: 50 µM
Method: as §1, §2

CYP1A2 = target: T1, CYP1A2 (Macaca fascicularis, UniProt O77809); assay: CYP1A2 fluorometric activity assay in cynomolgus monkey hepatic microsomes; set-up: cynomolgus monkey microsomal suspension (Primacyt, Schwerin, Germany, protein concentration: 5 mg/mL); tissue Primacyt, Schwerin, Germany; host or cells: liver (hepatic microsomes)
T1 sequence (O77809 1-516): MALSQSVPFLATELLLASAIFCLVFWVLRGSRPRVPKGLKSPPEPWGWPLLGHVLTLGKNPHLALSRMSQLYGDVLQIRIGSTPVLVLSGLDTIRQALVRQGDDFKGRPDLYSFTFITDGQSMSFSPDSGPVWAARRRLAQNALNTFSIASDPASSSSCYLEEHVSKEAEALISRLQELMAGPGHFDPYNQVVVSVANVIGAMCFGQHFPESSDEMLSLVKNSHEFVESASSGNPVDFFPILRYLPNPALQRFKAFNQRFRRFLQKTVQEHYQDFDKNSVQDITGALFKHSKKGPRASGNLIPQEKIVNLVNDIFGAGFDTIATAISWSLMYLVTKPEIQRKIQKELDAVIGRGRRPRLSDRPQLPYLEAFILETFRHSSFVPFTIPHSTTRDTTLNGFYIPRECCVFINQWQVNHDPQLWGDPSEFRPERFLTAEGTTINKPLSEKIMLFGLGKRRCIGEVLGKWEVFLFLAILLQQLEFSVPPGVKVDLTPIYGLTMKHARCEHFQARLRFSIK
Method: The Biovision CYP assay (BioVision, Inc., Kampenhout, Belgium) utilizes a non-fluorescent CYP1A2 substrate capable of transforming into a highly fluorescent metabolite, which can be detected in the visible range. α-naphthoflavone was used as a CYP1A2 reference inhibitor at 6 µM during the experiments. Rat (Sprague–Dawley) and beagle (Gibco, Biocenter, Szeged, Hungary, protein concentration: 20 mg/mL) hepatic microsomal preparations were prepared separately by mixing 25 µL of the obtained rat or beagle microsomal suspension with 2425 µL assay buffer and with 50 µL NADPH generating system (100×). In the case of the cynomolgus monkey microsomal suspension (Primacyt, Schwerin, Germany, protein concentration: 5 mg/mL), the following volumes were applied: in addition to 100 µL of monkey microsomal suspension, the amount of assay buffer and the NADPH generating system were adjusted in order to ensure the original ratios of these components to reach a final volume of 2500 µL. Rat, beagle, and cynomolgus monkey microsomal suspension aliquots (50 µL) were treated with the protease inhibitor 20 µL, 0–1000 µM), the reference compound α-naphthoflavone (20 µL, 30 µM), or the assay buffer without test compounds (20 µL, background control) for 15 min at 37 °C. After incubation, 30 µL of the appropriate CYP1A2 substrate/NADP+ mixture was added to each well, yielding a final reaction volume of 100 µL/well. The protein contents of the obtained microsomes were analysed using bicinchoninic acid protein assay kit (Pierce BCA kit, Thermo Fisher Scientific, Waltham, MA, USA). […] The fluorescence intensities were measured with a fluorometer (Victor X2 2030, Perkin Elmer, Waltham, MA, USA), using λEx/Em = 406/468 nm.

Row | Compound | depletion percentage of the parent compound ([1]; monkey microsomes, 0.6 mg/mL protein, mean ± SD (n = 3)) [%] | depletion percentage of the parent compound ([2]; rat microsomes, 0.6 mg/mL protein, mean ± SD (n = 3)) [%] | IC50 (CYP1A2) [nM] | CYP1A2 in the cynomolgus monkey microsomal model (CYP1A2; inhibitors at 50 µM) | depletion percentage of the parent compound ([1]; cynomolgus monkey, pH 7.4) [%] | depletion percentage of the parent compound ([2]; Sprague-Dawley, rat, pH 7.4) [%] | CYP1A2 in the cynomolgus monkey microsomal model (CYP1A2; microsomes)
1 | COc1ccc(-c2cccc(S(=O)(=O)N[C@@H](Cc3cccc(C(=N)N)c3)C(=O)N3CCN(C(=O)NC4CCCCC4)CC3)c2)c(OC)c1 [MI-1900] | 26.7 ± 10.8 | 30.7 ± 11.7 | 1100 ± 800 | inhibited |  |  | 
2 | N=C(N)c1cccc(C[C@H](NS(=O)(=O)c2cccc(-c3ccc(Cl)cc3Cl)c2)C(=O)N2CCC(CCN)CC2)c1 [MI-432] |  |  | 1300 ± 140 |  | 19.6 ± 5.8 | 28 ± 3.1 | inhibited
